These results are taken from ChEMBL document CHEMBL1133442, “Symmetrical bis(heteroarylmethoxyphenyl)alkylcarboxylic acids as inhibitors of leukotriene biosynthesis” (J Med Chem, 2000).

Common to all, as to assay type: functional
The test system of test [1] is Rattus norvegicus. The test is described as follows: Inhibition of leukotriene production in an ionophore-induced rat pleurisy model at 3 mg/kg. Particulars: for inhibition in vivo at 3 mg/kg: Rattus norvegicus.
The species entered for test [2] is Homo sapiens. Kind of test: Inhibition of calcium ionophore (A-23187) -stimulated leukotriene B4 (LTB4) formation in human neutrophils at 390 nM.
In test [3] the test system is Rattus norvegicus. The test is described as follows: In vivo inhibition evaluation of leukotriene inhibition in an ionophore-induced rat pleurisy at 3 mg/kg.
For test [4], the species on record is Homo sapiens. Kind of test: Inhibition of calcium ionophore (A-23187) stimulated leukotriene B4 (LTB4) formation in human neutrophils at 390 nM.

Regarding `CC(CC(c1ccc(OCc2ccc3ccccc3n2)cc1)c1ccc(OCc2ccc3ccccc3n2)cc1)C(=O)O` (stereo unspecified), the Inhibition with Rattus norvegicus [1] is 43%. The inhibition at 0.39 µM in the test filed under Homo sapiens [2] (Homo sapiens) was found to be 82%.

Compound `O=C(O)C#CC(O)(c1ccc(OCc2ccc3ccccc3n2)cc1)c1ccc(OCc2ccc3ccccc3n2)cc1` displayed an inhibition in vivo at 3 mg/kg in the test with Rattus norvegicus [1] of 48%. In the test listed under Homo sapiens [2] (Homo sapiens), the inhibition at 0.39 µM amounted to 98%.

`CC(SCC(=O)O)(c1ccc(OCc2ccc3ccccc3n2)cc1)c1ccc(OCc2ccc3ccccc3n2)cc1` yielded an inhibition in vivo at 3 mg/kg with Rattus norvegicus [1] of 0%. In the test filed under Homo sapiens [2] (Homo sapiens), the inhibition at 0.39 µM is 62%.

`O=C(O)/C=N/OCC=C(c1ccc(OCc2ccc3ccccc3n2)cc1)c1ccc(OCc2ccc3ccccc3n2)cc1` gave an inhibition in vivo at 3 mg/kg with Rattus norvegicus [1] of 17%. For the same compound, the inhibition at 0.39 µM in the test listed under Homo sapiens [2] (Homo sapiens) was 100%.

As for `C/C(=N\OCCC(C)(c1ccc(OCc2ccc3ccccc3n2)cc1)c1ccc(OCc2ccc3ccccc3n2)cc1)C(=O)O`, in the test with Rattus norvegicus [1], 3 mg/kg produced 23% inhibition in vivo. Besides, the inhibition at 0.39 µM in the test listed under Homo sapiens [2] (Homo sapiens) is 54%.

`O=C(O)/C=N/OC1CCC(c2ccc(OCc3ccc4ccccc4n3)cc2)(c2ccc(OCc3ccc4ccccc4n3)cc2)CC1`: at 3 mg/kg the inhibition in vivo with Rattus norvegicus [1] was 15%. The inhibition at 0.39 µM in the test listed under Homo sapiens [2] (Homo sapiens) was 54%.

On to `CC(CCC(=O)[O-])(c1ccc(OCc2ccc3ccccc3n2)cc1)c1ccc(OCc2ccc3ccccc3n2)cc1.[Na+]`, for which it took a dose of 3 mg/kg to reach the 50% effect level in the test with Rattus norvegicus [3] (ED50). In addition, the IC50 in the test listed under Homo sapiens [4] amounted to 0.02 µM.

The compound `O=C(O)CSC(c1ccc(OCc2ccc3ccccc3n2)cc1)(c1ccc(OCc2ccc3ccccc3n2)cc1)c1cccs1` had a median effective dose (ED50) with Rattus norvegicus [3] of 1.1 mg/kg. Also, in the test filed under Homo sapiens [4] (Homo sapiens), the IC50 came out at 0.011 µM.

As to `C/C(=N\OC(c1ccc(OCc2ccc3ccccc3n2)cc1)c1ccc(OCc2ccc3ccccc3n2)cc1)C(=O)O`, in the test on Rattus norvegicus [3], the 50% effect level (ED50) was put at a dose of 1.5 mg/kg. In addition, the IC50 in the test listed under Homo sapiens [4] (Homo sapiens) was determined as 0.021 µM.

Consider `CC(CCC(=O)O)(c1ccc(OCc2ccccn2)cc1)c1ccc(OCc2ccccn2)cc1`, for which the inhibition in vivo at 3 mg/kg with Rattus norvegicus [3] is 0%. Besides, the inhibition at 0.39 µM in the test listed under Homo sapiens [2] amounted to 53%.

In the test with Rattus norvegicus [3], `C/C(CCC(=O)O)=N\OC(c1ccc(OCc2ccc3ccccc3n2)cc1)c1ccc(OCc2ccc3ccccc3n2)cc1` gave an ED50 of 1 mg/kg. Besides, the IC50 in the test filed under Homo sapiens [4] (Homo sapiens) was 0.05 µM.

For `CC(CCC(=O)O)(c1ccc(OCc2ccc3ccccc3n2)cc1)c1ccc(OCc2ccc3ccccc3n2)cc1`, in the test with Rattus norvegicus [3], it took a dose of 1.5 mg/kg to reach the 50% effect level (ED50). Also, the IC50 in the test listed under Homo sapiens [4] (Homo sapiens) stood at 0.023 µM.

The compound `OC(c1ccc(OCc2ccc3ccccc3n2)cc1)(c1ccc(OCc2ccc3ccccc3n2)cc1)c1cccs1` showed an inhibition in vivo at 3 mg/kg in the test with Rattus norvegicus [1] of 0%. The inhibition at 0.39 µM in the test listed under Homo sapiens [2] (Homo sapiens) turned out to be 87%.

Turning to `CC(CCC(=O)O)(c1ccc(OCc2ccc3ccccc3n2)cc1)c1ccc(OCc2nc3ccccc3s2)cc1` (stereo unspecified), in the test with Rattus norvegicus [1], the inhibition in vivo at 3 mg/kg is 35%. Further, the inhibition at 0.39 µM in the test filed under Homo sapiens [2] (Homo sapiens) turned out to be 95%.

Turning to `Cn1c(COc2ccc(C(C)(CCC(=O)O)c3ccc(OCc4nc5ccccc5n4C)cc3)cc2)nc2ccccc21`, the values for the Inhibition in the test on Rattus norvegicus [1] and in the test listed under Homo sapiens [2] were 0% and 27%, respectively.

Consider `Cn1c(COc2ccc(C(C)(CCC(=O)[O-])c3ccc(OCc4nc5ccccc5n4C)cc3)cc2)nc2ccccc21.[Na+]`, for which the Inhibition was 29% in the test on Rattus norvegicus [1] and 59% in the test filed under Homo sapiens [2].

`CC(CCC(=O)O)(c1ccc(OCc2cnc3ccccc3n2)cc1)c1ccc(OCc2cnc3ccccc3n2)cc1`: in the test on Rattus norvegicus [1], at 3 mg/kg the inhibition in vivo was 14%. Besides, in the test listed under Homo sapiens [2] (Homo sapiens), the inhibition at 0.39 µM was determined as 47%.

As to `OCC1CCC(c2ccc(OCc3ccc4ccccc4n3)cc2)(c2ccc(OCc3ccc4ccccc4n3)cc2)CC1`, in the test listed under Homo sapiens [2] (Homo sapiens), the inhibition at 0.39 µM was 28%.

The compound `CC(CCC(=O)O)(c1ccc(OCc2ccc3ccccc3c2)cc1)c1ccc(OCc2ccc3ccccc3n2)cc1` (stereo unspecified) had an inhibition in vivo at 3 mg/kg with Rattus norvegicus [1] of 55%. Besides, in the test listed under Homo sapiens [2] (Homo sapiens), the inhibition at 0.39 µM was 93%.

As to `CC(C)(/C=N/OCC(=O)O)C(c1ccc(OCc2ccc3ccccc3n2)cc1)c1ccc(OCc2ccc3ccccc3n2)cc1`, in the test on Rattus norvegicus [1], the inhibition in vivo at 3 mg/kg stood at 42%. Moreover, in the test listed under Homo sapiens [4] (Homo sapiens), the IC50 came to 0.028 µM.

As for `O=C(O)CON=C1CCC(c2ccc(OCc3ccc4ccccc4n3)cc2)(c2ccc(OCc3ccc4ccccc4n3)cc2)CC1`, in the test with Rattus norvegicus [1], testing at 3 mg/kg gave an inhibition in vivo of 0%. For the same compound, in the test listed under Homo sapiens [4] (Homo sapiens), the 50% inhibitory concentration (IC50) is 0.065 µM.
